Experimental data: patent publication US12295936B2, “Immunomodulating urea azalides” (Zoetis Services LLC, priority 2020, dated 2025)

Assays:
TNF-α = test: LPS-stimulated whole bovine blood assay, MSD cytokine detection; assay type: cell-based; details: Bos taurus, LPS-stimulated bovine whole blood; read-out: TNF-α (IC50 μM)
P. multocida 46572 = test: In vivo mouse lung infection challenge model (murine efficacy); set-up: species or system CD-1 female mice; details: 20 mg/kg subcutaneous, P. multocida challenge; harmonized against the comparative vehicle survival rate
Procedure: The challenge organism was P. multocida 46572. Target challenge concentration was 5×10^2 CFU/mouse. Isolated colonies from overnight growth (37° C. with 5% CO2) on trypticase soy agar (TSA II) blood plates were transferred to room temperature Brain Heart Infusion Broth (BHIB). The broth culture was incubated 3.5-4 hours to approximately mid-log phase of growth, as measured by forward light scatter at 600 nm (OD600, 0.200). The culture was centrifuged to collect the bacterial pellet. The pellet was re-suspended in BHIB and adjusted to provide an approximate concentration of 2.7 log^10 colony forming units (CFU) in 0.04 mL at the highest concentration. The challenge inoculum concentration was confirmed by serial dilutions of the inoculum for CFU enumeration. On Day −5, CD-1 female mice were received. Mice were given standard rodent diet and water ad libitum. On Day 0, bacterial inoculum (0.04 mL) was administered to each mouse (n=36) intranasally. Compounds of the invention were dosed at 20 mg/kg (0.1 mL) in a buffered (˜pH 5.4) propylene glycol, monothioglycerol and water solution by subcutaneous injection. Animals were observed from Days 1-10. The study was terminated on Day 10. In addition, some treatment groups were sampled at 6, 24, and 48 hours post bacterial challenge for RNA sequence analysis of lung tissue.
The murine efficacy model (P. multocida challenge) was optimized, and the treatment group size was powered to be able to observe statistically significant improvement of survival to expected ranges for immunomodulatory compounds. The experimental design was a randomized complete block design. Mice were individually identified and treatment groups comingled within a cage, with every treatment group equally represented across cages. Mortality was the primary variable. Mortality data was analyzed using a generalized mixed model with fixed effect of treatment and random effect of block. Survival time was also analyzed using the SAS PHREG (survival analysis) procedure to examine whether there were significant differences between treatment groups and the control group. Numerous compounds of the invention and M9 (positive control) were tested in this model at a dose of 20 mg/kg. Typical percent survival for no treatment control is in the range of 0-20% based on study to study variation in challenge inoculum and rate of infection. […] Mouse survival for M9 was about 90-100%, further supporting its antibacterial properties against the bacterial strain (Table 3). Survival values presented are harmonized against the comparative vehicle survival rate.

IL-1β = test: LPS-stimulated whole bovine blood assay, MSD cytokine detection; assay type: cell-based; details: overstimulation of IL-1β, LPS-stimulated bovine whole blood
[1] = test system: BRD pathogens, M. haemolytica and P. multocida; test: MIC screening panel of BRD pathogens (antibacterial / non-antibacterial); details: read-out: antibacterial / non-antibacterial (MIC for the BRD pathogens)

| Compound | IC50 (TNF-α) | Mouse Murine Percent Survival (P. multocida 46572) | IL-1β OS of LPS (IL-1β) | MIC [1] |
| --- | --- | --- | --- | --- |
| CC[C@H]1OC(=O)[C@H](C)[C@@H](O[C@H]2C[C@@](C)(OC)[C@@H](O)[C@H](C)O2)[C@H](C)[C@@H](O[C@@H]2O[C@H](C)C[C@H](N(C)C(=O)Nc3ccccc3)[C@H]2O)[C@](C)(O)C[C@@H](C)CN(C)[C@H](C)[C@@H](O)[C@]1(C)O [Example B-4, 1-((2S,3R,4S,6R)-2-(((2R,3S,4R,5R,8R,10R,11R,12S,13S,14R)-2-ethyl-3,4,10-trihydroxy-13-(((2R,4R,5S,6S)-5-hydroxy-4-methoxy-4,6-dimethyltetrahydro-2H-pyran-2-yl)oxy)-3,5,6,8,10,12,14-heptamethyl-15-oxo-1-oxa-6-azacyclopentadecan-11-yl)oxy)-3-hydroxy-6-methyltetrahydro-2H-pyran-4-yl)-1-methyl-3-phenylurea] | 45 µM | 7% | 80 µM | – |
| CC[C@H]1OC(=O)[C@H](C)[C@@H](O[C@H]2C[C@@](C)(OC)[C@@H](O)[C@H](C)O2)[C@H](C)[C@@H](O[C@@H]2O[C@H](C)C[C@H](N(C)C(=O)N(C)c3ccccc3)[C@H]2O)[C@](C)(O)C[C@@H](C)CN(C)[C@H](C)[C@@H](O)[C@]1(C)O [Example B-5, 1-((2S,3R,4S,6R)-2-(((2R,3S,4R,5R,8R,10R,11R,12S,13S,14R)-2-ethyl-3,4,10-trihydroxy-13-(((2R,4R,5S,6S)-5-hydroxy-4-methoxy-4,6-dimethyltetrahydro-2H-pyran-2-yl)oxy)-3,5,6,8,10,12,14-heptamethyl-15-oxo-1-oxa-6-azacyclopentadecan-11-yl)oxy)-3-hydroxy-6-methyltetrahydro-2H-pyran-4-yl)-1,3-dimethyl-3-phenylurea] | – | <1% | – | – |
| CC[C@H]1OC(=O)[C@H](C)[C@@H](O[C@H]2C[C@@](C)(OC)[C@](C)(O)[C@H](C)O2)[C@H](C)[C@@H](O[C@@H]2O[C@H](C)C[C@H](N(C)C(=O)N(C)c3ccc(C(F)(F)F)cc3)[C@H]2O)[C@](C)(O)C[C@@H](C)CN[C@H](C)[C@@H](O)[C@]1(C)O [Example B-13a, 1-((2S,3R,4S,6R)-2-(((2R,3S,4R,5R,8R,10R,11R,12S,13S,14R)-2-ethyl-3,4,10-trihydroxy-13-(((2R,4R,5R,6S)-5-hydroxy-4-methoxy-4,5,6-trimethyltetrahydro-2H-pyran-2-yl)oxy)-3,5,8,10,12,14-hexamethyl-15-oxo-1-oxa-6-azacyclopentadecan-11-yl)oxy)-3-hydroxy-6-methyltetrahydro-2H-pyran-4-yl)-1,3-dimethyl-3-(4-(trifluoromethyl)phenyl)urea] | 20 µM | 44% | 16 µM | – |
| CC[C@H]1OC(=O)[C@H](C)[C@@H](O[C@H]2C[C@@](C)(OC)[C@](O)(CNCCN(C)C)[C@H](C)O2)[C@H](C)[C@@H](O[C@@H]2O[C@H](C)C[C@H](N(C)C(=O)Nc3ccccc3)[C@H]2O)[C@](C)(O)C[C@@H](C)CN[C@H](C)[C@@H](O)[C@]1(C)O [Example H-3, 1-((2S,3R,4S,6R)-2-(((2R,3S,4R,5R,8R,10R,11R,12S,13S,14R)-13-(((2R,4R,5S,6S)-5-(((2-(dimethylamino)ethyl)amino)methyl)-5-hydroxy-4-methoxy-4,6-dimethyltetrahydro-2H-pyran-2-yl)oxy)-2-ethyl-3,4,10-trihydroxy-3,5,8,10,12,14-hexamethyl-15-oxo-1-oxa-6-azacyclopentadecan-11-yl)oxy)-3-hydroxy-6-methyltetrahydro-2H-pyran-4-yl)-1-methyl-3-phenylurea] | 400 µM | 8% | >500 µM | – |
| CCCNC[C@]1(O)[C@H](C)O[C@@H](O[C@H]2[C@H](C)[C@@H](O[C@@H]3O[C@H](C)C[C@H](N(C)C(=O)N(c4ccccc4)C4CC4)[C@H]3O)[C@](C)(O)C[C@@H](C)CN[C@H](C)[C@@H](O)[C@](C)(O)[C@@H](CC)OC(=O)[C@@H]2C)C[C@@]1(C)OC [Example H-14, 1-cyclopropyl-3-((2S,3R,4S,6R)-2-(((2R,3S,4R,5R,8R,10R,11R,12S,13S,14R)-2-ethyl-3,4,10-trihydroxy-13-(((2R,4R,5S,6S)-5-hydroxy-4-methoxy-4,6-dimethyl-5-((propylamino)methyl)tetrahydro-2H-pyran-2-yl)oxy)-3,5,8,10,12,14-hexamethyl-15-oxo-1-oxa-6-azacyclopentadecan-11-yl)oxy)-3-hydroxy-6-methyltetrahydro-2H-pyran-4-yl)-3-methyl-1-phenylurea] | – | 46% | – | > 64 µg/mL |
| CCCNC[C@]1(O)[C@H](C)O[C@@H](O[C@H]2[C@H](C)[C@@H](O[C@@H]3O[C@H](C)C[C@H](N(C)C(=O)Nc4ccncc4)[C@H]3O)[C@](C)(O)C[C@@H](C)CN[C@H](C)[C@@H](O)[C@](C)(O)[C@@H](CC)OC(=O)[C@@H]2C)C[C@@]1(C)OC [Example H-73, 1-((2S,3R,4S,6R)-2-(((2R,3S,4R,5R,8R,10R,11R,12S,13S,14R)-2-ethyl-3,4,10-trihydroxy-13-(((2R,4R,5S,6S)-5-hydroxy-4-methoxy-4,6-dimethyl-5-((propylamino)methyl)tetrahydro-2H-pyran-2-yl)oxy)-3,5,8,10,12,14-hexamethyl-15-oxo-1-oxa-6-azacyclopentadecan-11-yl)oxy)-3-hydroxy-6-methyltetrahydro-2H-pyran-4-yl)-1-methyl-3-(pyridin-4-yl)urea] | > 500 µM | 4% | >500 µM | – |
| CCCNC[C@]1(O)[C@H](C)O[C@@H](O[C@H]2[C@H](C)[C@@H](O[C@@H]3O[C@H](C)C[C@H](N(C)C(=O)Nc4ccc(F)cc4)[C@H]3O)[C@](C)(O)C[C@@H](C)CN[C@H](C)[C@@H](O)[C@](C)(O)[C@@H](CC)OC(=O)[C@@H]2C)C[C@@]1(C)OC [Example H-83, 1-((2S,3R,4S,6R)-2-(((2R,3S,4R,5R,8R,10R,11R,12S,13S,14R)-2-ethyl-3,4,10-trihydroxy-13-(((2R,4R,5S,6S)-5-hydroxy-4-methoxy-4,6-dimethyl-5-((propylamino)methyl)tetrahydro-2H-pyran-2-yl)oxy)-3,5,8,10,12,14-hexamethyl-15-oxo-1-oxa-6-azacyclopentadecan-11-yl)oxy)-3-hydroxy-6-methyltetrahydro-2H-pyran-4-yl)-3-(4-fluorophenyl)-1-methylurea] | 350 µM | 11% | 80 µM | > 64 µg/mL |
| CCCNC[C@]1(O)[C@H](C)O[C@@H](O[C@H]2[C@H](C)[C@@H](O[C@@H]3O[C@H](C)C[C@H](N(C)C(=O)Nc4ccc(OC)cc4)[C@H]3O)[C@](C)(O)C[C@@H](C)CN[C@H](C)[C@@H](O)[C@](C)(O)[C@@H](CC)OC(=O)[C@@H]2C)C[C@@]1(C)OC [Example H-87, 1-((2S,3R,4S,6R)-2-(((2R,3S,4R,5R,8R,10R,11R,12S,13S,14R)-2-ethyl-3,4,10-trihydroxy-13-(((2R,4R,5S,6S)-5-hydroxy-4-methoxy-4,6-dimethyl-5-((propylamino)methyl)tetrahydro-2H-pyran-2-yl)oxy)-3,5,8,10,12,14-hexamethyl-15-oxo-1-oxa-6-azacyclopentadecan-11-yl)oxy)-3-hydroxy-6-methyltetrahydro-2H-pyran-4-yl)-3-(4-methoxyphenyl)-1-methylurea] | 100 µM | 14% | 500 µM | – |
| CCCNC[C@]1(O)[C@H](C)O[C@@H](O[C@H]2[C@H](C)[C@@H](O[C@@H]3O[C@H](C)C[C@H](N(C)C(N)=O)[C@H]3O)[C@](C)(O)C[C@@H](C)CN[C@H](C)[C@@H](O)[C@](C)(O)[C@@H](CC)OC(=O)[C@@H]2C)C[C@@]1(C)OC [Example H-96, 1-((2S,3R,4S,6R)-2-(((2R,3S,4R,5R,8R,10R,11R,12S,13S,14R)-2-ethyl-3,4,10-trihydroxy-13-(((2R,4R,5S,6S)-5-hydroxy-4-methoxy-4,6-dimethyl-5-((propylamino)methyl)tetrahydro-2H-pyran-2-yl)oxy)-3,5,8,10,12,14-hexamethyl-15-oxo-1-oxa-6-azacyclopentadecan-11-yl)oxy)-3-hydroxy-6-methyltetrahydro-2H-pyran-4-yl)-1-methylurea] | – | 11% | – | > 64 µg/mL |
